Results as given in patent US20220127297A1, “Novel Antibacterial 3"-Derivatives Of 4,6-Disubstituted 2,5-Dideoxystreptamine Aminoglycoside Antibiotics” (AGILeBiotics B.V., priority 2018, published 2022).
In brackets after ≈: the same amount, converted by molar mass.

What was measured:
[1] = test system: E. coli ATCC25922 strain; assay: MIC 50, broth micro-dilution, wild-type Escherichia coli; type: cell-based; conditions: MH2, 18 h
Excerpt: (§1) 3.1 Against E. coli Strains
(§2) Tested reference compounds. Amikacin sulfate (Cat. No. 01693, Chem-Impex), Gentamicin sulfate (Cat. No. G4918, Sigma Aldrich).
(§3) Microbial strains. E. coli ATCC 25922, E. coli ATCC 25922/pET-9b(+), E. coli ATCC 25922/pAT21-1, E. coli ATCC 25922/pBluescript::AAC(6′)-Ie/APH(2″)-Ia, E. coli ATCC 25922/pBlue_lpp_aacC3_rrnC, E. coli ATCC 25922/pSET152.
(§4) Culture media and equipment. BBL™ Mueller Hinton Broth 2 (Lot. BCBW1143, Cat. No. 70192, Sigma); Kanamycin A (Cat. No. A1493, AppliChem); 96-well deep well plate, 1 mL (Cat. No. 0030506.200, Eppendorf); Plate lids (Cat. No. 0030131.525, Eppendorf); 96-well plate, F-bottom (Cat. No. 781602, Brand; Incubator, Infors Multitron Pro); Laminar flow (Heraeus KS12); UV/VIS meter (Eppendorf BioPhotometer Plus); Platereader (Tecan Sunrise).
(§5) Compound preparation. Compounds were prepared in MH2 media at a concentration of 5 mM and stored at 4° C. For testing, solutions of 128 μM were prepared in MH2. Out of these working solutions, 400 μL was transferred to wells in the first column of 96-well deep well plates. Each compound was transferred in triplicate. Plates were previously filled with 200 μL of MH2 media in all wells except for the wells in the first column. After compound and antibiotic addition, the compounds were serial two-fold diluted by transferring 200 μL from the first to the second column, then from the second to the third column and so on. Finally, 200 μL was removed from the last column.
(§6) Inoculum preparation. Microorganisms used were all revived from 20% glycerol (40% v/v glycerol in water was diluted with MH2) storage at −80° C. by inoculating them in 5 mL MH2. inoculums of E. coli containing a plasmid were selected for by adding 50 μg/mL KanaA. The Inoculums were grown to an optical density (measured by UV/Vis spectroscopy) of 0.6-0.8 at 600 nm. Out of these suspensions, actual inoculums were prepared by diluting them to an optical density (OD) of 0.1 in MH2 media. From these inoculums, 200 μL was transferred to each well, resulting in a final compound concentration range of 64 μM-31.3 nM. All plates were incubated at 900 rpm and 70% rH for 18 h at 37° C.
MIC determination. After 18 h of growth, 200 μL was transferred to a 96-well F-bottom plate. The optical density was determined by a plate reader at 600 nm, with 10 s shaking before reading. Triplicate measurements were averaged, and a growth curve was plotted in Microsoft Excel. The first column in which the growth reached half the value of maximum growth was determined as the MIC50 value for that particular compound.
MIC50. The MIC50 of a compound was assigned at which the bacterial growth reached half the value of maximum growth.

[2] = test system: E. coli (APH(3′)Ia); assay: MIC 50, broth micro-dilution, E. coli expressing APH(3′)Ia; type: cell-based, Escherichia coli
Method: (§7) Plasmid transformation. Approximately 500 ng of the pET-9b(+) (Cat. No. 69432-3, Merck), pAT21-1 (provided by Prof. Dr. Patrice Courvalin, M.D., Pasteur Institute, France; prepared according to Trieu-Cuot et. al, Mol. Gen. Genet. 198(2), 348 (1985)), pBluescript::AAC(6′)-Ie/APH(2″)-Ia (provided by Prof. Dr. Sergei Vakulenko, M.D., University of Notre Dame, Ind., USA; prepared according to S. B. Vakulenko et. al., J. Biol. Chem. 287 (52), 43262 (2012)), pBlue_lpp_aacC3_rrnC and pSET152 (Cat. No. PVT3395, Life Science Market; prepared according to Bierman et al., Gene 116 (1), 43 (1992)) plasmids, encoding APH(3′)-Ia (SEQ ID NO:2), APH(3′)-IIIa (SEQ ID NO:3), AAC(6′)Ie-APH(2″)-Ia (SEQ ID NO:4), AAC(3)-III (SEQ ID NO:1), and AAC(3)-IV (SEQ ID NO:5) respectively, were individually incubated in a vial of competent cells for 15 min on ice. The cells were subsequently heated to 42° C. for 90 s, and cooled on ice for 1 min. After addition of 900 μL LB, the cells were incubated for 1 h at 37° C. and 200 rpm. Cells were plated on LB-agar supplemented with 50 μg/mL KanaA and incubated for 18 h at 37° C. The next day, a single colony was inoculated in 5 mL LB supplemented with 50 μg/mL and grown for 18 h at 37° C. and 200 rpm. A 200 μL sample of each culture was diluted with 200 μL of 40% v/v glycerol in water, and stored at −80° C. The plasmid was purified from the remaining culture using the Plasmid Miniprep kit. Plasmid DNA was investigated by Eurofins Genomics (Germany) to confirm the identity of the aminoglycoside resistance genes.
as §1, §2, §3, §4, §5, §6
(§8) MIC determination. After 18 h of growth, 200 μL was transferred to a 96-well F-bottom plate. The optical density was determined by a plate reader at 600 nm, with 10 s shaking before reading. Triplicate measurements were averaged, and a growth curve was plotted in Microsoft Excel. […]

[3] = test system: E. coli (AAC(6′)Ie-APH(2″)Ia); assay: MIC 50, broth micro-dilution, E. coli expressing AAC(6′)Ie-APH(2″)Ia; type: cell-based, Escherichia coli
Method: as §7, §1, §2, §3, §4, §5, §6, §8

[4] = Escherichia coli, ATCC25922, 18 h
[5] = Escherichia coli, ATCC25922, ATCC25922 harboring plasmid encoding APH(3′)Ia
[6] = Escherichia coli, ATCC25922, ATCC25922 harboring plasmid encoding AAC(6′)Ie-APH(2″)Ia
[7] = ATCC25922 harboring plasmid encoding APH(3′)Ia
[8] = ATCC25922 harboring plasmid encoding AAC(6′)Ie-APH(2″)Ia

Q: `N=C(NCC1CCCO1)NC1[C@@H](O)C(OC2[C@@H](F)[C@H](O[C@H]3OC(CN)[C@@H](O)CC3N)C(N)C[C@H]2NC(=O)[C@@H](O)CCN)O[C@H](CO)[C@H]1O` (some centres unmarked) [ABX5046, Tobra-AHB-F-Gua tetrahydrofuran-2-yl methyl] was tested. Which MIC50 [1, 4] did it give?
A: 0.5 µM (≈ 0.348 µg/mL)

Q: And the MIC50 [2, 5]?
A: 1 µM (≈ 0.697 µg/mL)

Q: What about the MIC50 [3, 6] of the same compound?
A: 0.5 µM (≈ 0.348 µg/mL)

Q: For `N=C(N)NC1[C@@H](O)C(OC2[C@@H](O)[C@H](O[C@H]3OC(CN)[C@@H](O)CC3N)C(N)C[C@H]2NC(=O)[C@@H](O)CCN)O[C@H](CO)[C@H]1O` (some centres unmarked) [ABX5005, Tobra-AHB-Gua], which “MIC50” value [1] is on record?
A: 1 to 2 µM

Q: What about the “MIC50” value [2, 7] of the same compound?
A: 2 to 4 µM

Q: What about the “MIC50” value [3, 8] of the same compound?
A: 2 µM (≈ 1.22 µg/mL)

Q: For `N=C(NCCCO)NC1[C@@H](O)C(OC2[C@@H](F)[C@H](O[C@H]3OC(CN)[C@@H](O)CC3N)C(N)C[C@H]2NC(=O)[C@@H](O)CCN)O[C@H](CO)[C@H]1O` (some centres unmarked) [ABX5041, Tobra-AHB-F-Gua 3-hydroxy-propyl], which MIC50 [1, 4] is on record?
A: 0.5 µM (≈ 0.335 µg/mL)

Q: And the MIC50 [2, 5]?
A: 1 µM (≈ 0.671 µg/mL)

Q: And the MIC50 [3, 6]?
A: 0.5 µM (≈ 0.335 µg/mL)

Q: `N=C(NCC1CC1)NC1[C@@H](O)C(OC2[C@@H](F)[C@H](O[C@H]3OC(CN)[C@@H](O)CC3N)C(N)C[C@H]2NC(=O)[C@@H](O)CCN)O[C@H](CO)[C@H]1O` (some centres unmarked) [ABX5027, Tobra-AHB-F-Gua cyclopropylmethyl] was tested. Which MIC50 [1, 4] did it give?
A: 0.5 µM (≈ 0.333 µg/mL)

Q: What about the MIC50 [2, 5] of the same compound?
A: 1 µM (≈ 0.667 µg/mL)

Q: What about the MIC50 [3, 6] of the same compound?
A: 0.5 µM (≈ 0.333 µg/mL)

Q: Which “MIC50” value [1] does the source give for `NCC[C@H](O)C(=O)N[C@@H]1CC(N)[C@@H](O[C@H]2OC(CN)[C@@H](O)[C@@H](O)C2N)[C@H](O)C1OC1O[C@H](CO)[C@@H](O)C(N)[C@H]1O` (stereo partly drawn) [ABX4002, 3′Epi-KanaB-AHB] here?
A: 8 µM (≈ 4.68 µg/mL)

Q: What about the “MIC50” value [2, 7] of the same compound?
A: 8 to 16 µM

Q: What about the “MIC50” value [3, 8] of the same compound?
A: 4 to 8 µM

Q: `N=C(NCCCN)NC1[C@@H](O)C(OC2[C@@H](F)[C@H](O[C@H]3OC(CN)[C@@H](O)CC3N)C(N)C[C@H]2NC(=O)[C@@H](O)CCN)O[C@H](CO)[C@H]1O` (some centres unmarked) [ABX5030, Tobra-AHB-F-Gua-3-amino-propyl] was tested. Which MIC50 [1, 4] did it give?
A: 0.25 µM (≈ 0.167 µg/mL)

Q: What about the MIC50 [2, 5] of the same compound?
A: 2 µM (≈ 1.34 µg/mL)

Q: And the MIC50 [3, 6]?
A: 0.25 to 0.5 µM (≈ 0.167 to 0.335 µg/mL)

Q: For `NCC[C@H](O)C(=O)N[C@@H]1CC(N)[C@@H](O[C@H]2OC(CN)[C@@H](O)CC2N)[C@H](O)C1OC1O[C@H](CO)[C@@H](O)C(N)[C@H]1O` (some centres unmarked) [ABX5004, Tobra-AHB], which “MIC50” value [1] is on record?
A: 2 µM (≈ 1.14 µg/mL)

Q: And the “MIC50” value [2, 7]?
A: 4 to 8 µM

Q: What about the “MIC50” value [3, 8] of the same compound?
A: 4 µM (≈ 2.27 µg/mL)

Q: How did the MIC50 [1, 4] turn out when `C[C@@H](N)CCNC(=N)NC1[C@@H](O)C(OC2[C@@H](F)[C@H](O[C@H]3OC(CN)[C@@H](O)CC3N)C(N)C[C@H]2NC(=O)[C@@H](O)CCN)O[C@H](CO)[C@H]1O` (stereo partly drawn) [ABX5047, Tobra-AHB-F-Gua (R) 3-amino-butyl] was run?
A: 0.25 µM (≈ 0.171 µg/mL)

Q: And the MIC50 [2, 5]?
A: 0.5 µM (≈ 0.342 µg/mL)

Q: And the MIC50 [3, 6]?
A: 0.25 µM (≈ 0.171 µg/mL)

Q: Which “MIC50” value [1] does the source give for `NCC[C@H](O)C(=O)N[C@@H]1CC(N)[C@@H](O[C@H]2OC(CN)[C@@H](O)[C@@H](O)C2N)[C@H](F)C1OC1O[C@H](CO)[C@@H](O)C(N)[C@H]1O` (stereo partly drawn) [ABX4003, 3′Epi-KanaB-AHB-F] here?
A: 4 to 8 µM

Q: And the “MIC50” value [2, 7]?
A: 8 to 16 µM

Q: And the “MIC50” value [3, 8]?
A: 8 µM (≈ 4.69 µg/mL)

Q: Which results are given for `N=C(N)NC1[C@@H](O)C(OC2[C@@H](F)[C@H](O[C@H]3OC(CN)[C@@H](O)[C@H](O)C3N)C(N)C[C@H]2NC(=O)[C@@H](O)CCN)O[C@H](CO)[C@H]1O` (some centres unmarked) [ABX4006, KanaB-AHB-F-Gua]?
A: MIC50 [2, 7]: 1 to 2 µM; MIC50 [3, 6]: 1 µM (≈ 0.629 µg/mL)
